Among the data in US9732093B2, “FLAP modulators” (JANSSEN PHARMACEUTICA NV, priority 2013, dated 2017) are Ki and IC50 values, retold here.

In assay [1] the target is human FLAP (Homo sapiens (Human), UniProt P20292). Description: FLAP binding assay (HTRF format). The method, boiled down: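 Read-out is the HTRF ratio. Each reported figure averages two assay plates on which samples were tested in duplicate.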
A general note: In TR-FRET formats the signal depends on donor and acceptor labels being close together.

In assay [2] the test system is leukotriene pathway in human whole blood. The assay is described as follows: Human whole blood assay (LTB4 levels after A23187 stimulation). The class given is cell-based. The procedure:
The ability of the compounds of the present invention to treat a FLAP-mediated disease and/or disorder, or associated symptoms or complications thereof, was determined using the following procedures. Binding assay data represent the average value obtained from two different assay plates, with samples run in duplicate on each plate. Human whole blood assay data represent a single replicate on an assay plate using whole blood from at least one healthy donor.
An in vitro cellular assay was performed using human whole blood collected in heparin-containing tubes, which was used to test the ability of compounds to modulate the leukotriene pathway in human whole blood. The blood was diluted 1:1 in RPMI medium, pre-incubated for 15 min at 37° Celsius with test compounds at various concentrations, and then stimulated with calcium ionophore, A23187 (7 μg/mL), for 30 min at 37° Celsius. The samples were then centrifuged and plasma was removed. The plasma was diluted in assay buffer and LTB4 levels were measured using a commercial kit (Enzo Life Sciences). The concentration of each compound that was required for half-maximal inhibition (modulation) of recombinant enzyme activity (IC50) was calculated by a 4-parameter equation using the program GraphPad Prism (GraphPad software).

Where [3] appears, read: human FLAP wild type membranes, HTRF format, Table 6 (additional runs).
[4] abbreviates: human whole blood diluted 1:1 in RPMI, A23187 stimulation, Table 6 (additional runs).
Where [5] appears, read: Homo sapiens, blood diluted 1:1 in RPMI, 15 min pre-incubation, A23187 7 μg/mL for 30 min at 37° Celsius, plasma LTB4.
[6] abbreviates: human FLAP-containing membranes, HTRF ligand 25 nM, 2 h, average of two plates, duplicates, read-out: FLAP Binding wild type HTRF Ki.

Structures can show the parent of a compound that is named as a salt. Where two headings read alike, the source gives them in different places. A value given as a limit tells only on which side of the number the result lay.

human FLAP, sequence (P20292 whole entry): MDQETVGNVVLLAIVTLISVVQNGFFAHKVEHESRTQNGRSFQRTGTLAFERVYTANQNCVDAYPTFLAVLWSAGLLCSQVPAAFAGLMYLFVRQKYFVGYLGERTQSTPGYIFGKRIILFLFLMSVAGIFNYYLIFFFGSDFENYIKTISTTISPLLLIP

Regarding `Fc1c(-c2cnc3c(c2)OCCN3)ccc(C2CCC2)c1Oc1ncccn1` [Example 225, 7-(4-Cyclobutyl-2-fluoro-3-(pyrimidin-2-yloxy)phenyl)-3,4-dihydro-2H-pyrido[3,2-b][1,4]oxazine], the affinity in assay [1] (setting [3]) corresponds to a Ki of 23.2 nM. Besides, the IC50 (in general, the midpoint of a concentration-inhibition curve) in assay [2] (setting [4]) worked out at 287 nM.
Turning to `N#Cc1cccnc1COc1c(C2CCC2)ccc(-c2cnc(N)cn2)c1F` [Example 286, 2-{[3-(5-Aminopyrazin-2-yl)-6-cyclobutyl-2-fluorophenoxy]methyl)}pyridine-3-carbonitrile trifluoroacetic acid salt], the Ki (as a rule, the equilibrium dissociation constant of an inhibitor or competing ligand from its target) in assay [1] (setting [3]) was found to be 81.7 nM. Besides, half-maximal inhibition in assay [2] (setting [4]) (IC50) required 1190 nM.
For `Cc1nc(COc2c(C3CCC3)ccc(-c3cnc(N)cn3)c2F)cs1` [Example 287, 5-{4-Cyclobutyl-2-fluoro-3-[(2-methyl-1,3-thiazol-4-yl)methoxy]phenyl}pyrazin-2-amine trifluoroacetic acid salt], the Ki in assay [1] (setting [3]) is 17.6 nM. Also, in assay [2] (setting [4]), the half-inhibitory concentration (IC50) was above 1000 nM.
In assay [1] (setting [3]), `Nc1ncc(-c2ccc(C3CCCC3)c(Oc3ncccn3)c2F)cn1` [Example 334, 5-[4-Cyclopentyl-2-fluoro-3-(pyrimidin-2-yloxy)phenyl]pyrimidin-2-amine] showed a Ki of 4.6 nM. In assay [2] (setting [4]), this compound showed an IC50 of 52.7 nM.
Turning to `Nc1ccnc(Oc2c(C3CCCC3)ccc(-c3cnc(N)nc3)c2F)n1` [Example 335, 5-{3-[(4-Aminopyrimidin-2-yl)oxy]-4-cyclopentyl-2-fluorophenyl}pyrimidin-2-amine], the Ki in assay [1] (setting [3]) was found to be 3.6 nM. The compound also registered an IC50 in assay [2] (setting [4]) of 36.9 nM.
`Nc1cnc(-c2ccc(C3CCCC3)c(Oc3nccc(N)n3)c2F)cn1` [Example 336, 2-[3-(5-Aminopyrazin-2-yl)-6-cyclopentyl-2-fluorophenoxy]pyrimidin-4-amine] came in with an inhibitory constant (Ki) in assay [1] (setting [3]) of 3.9 nM. The same compound yielded an IC50 in assay [2] (setting [4]) of 23.8 nM.
`Nc1cnc(-c2ccc(C3CCCC3)c(Oc3ncccn3)c2F)cn1` [Example 337, 5-[4-Cyclopentyl-2-fluoro-3-(pyrimidin-2-yloxy)phenyl]pyrazin-2-amine]: in assay [1] (setting [3]), the Ki worked out at 14.8 nM. In assay [2] (setting [4]), this compound displayed an IC50 of 162 nM.
For `Nc1cnc(-c2ccc(C3CCC3)c(Oc3ccc(N)nn3)c2F)cn1` [Example 338, 6-[3-(5-Aminopyrazin-2-yl)-6-cyclobutyl-2-fluorophenoxy]pyridazin-3-amine], in that order: 1.7 nM and 95.9 nM.
Take `Nc1cnc(-c2ccc(C3CCC3)c(OCc3ncccn3)c2F)cn1` [Example 339, 5-[4-Cyclobutyl-2-fluoro-3-(pyrimidin-2-ylmethoxy)phenyl]pyrazin-2-amine]: affinity in assay [1] (setting [3]) was put at a Ki of 108 nM. In assay [2] (setting [4]), this compound gave an IC50 of 1640 nM.
In assay [1] (setting [3]), `Nc1cnc(-c2ccc(C3CCC3)c(OCc3ccc(-c4cnc(N)nc4)cc3)c2F)cn1` [Example 341, 5-(4-{[3-(5-Aminopyrazin-2-yl)-6-cyclobutyl-2-fluorophenoxy]methyl}phenyl)pyrimidin-2-amine] came in with a Ki of 22.6 nM. Half-maximal inhibition in assay [2] (setting [4]) (IC50) was put at 124 nM.
Consider `Nc1cnc(-c2ccc(C3CCC3)c(OCc3ccc(-c4ccc(C(F)(F)F)cc4)cc3)c2F)cn1` [Example 342, 5-(4-Cyclobutyl-2-fluor-3-{[4-(trifluoromethyl)biphenyl-4-yl]methoxy}phenyl)pyrazin-2-amine], for which the Ki in assay [1] (setting [3]) came out at 8.1 nM. Moreover, in assay [2] (setting [4]), it took 26.3 nM to reach half-maximal inhibition (IC50).
`Nc1ncc(-c2ccc(C3CCCCC3)c(Oc3ncccn3)c2F)cn1` [Example 343, 5-[4-Cyclohexyl-2-fluoro-3-(pyrimidin-2-yloxy)phenyl]pyrimidin-2-amine]: the affinity in assay [1] (setting [3]) corresponds to a Ki of 5.4 nM. In assay [2] (setting [4]), this compound had an IC50 of 14.4 nM.
In assay [1] (setting [3]), `Nc1cnc(-c2ccc(C3CCCCC3)c(O)c2F)cn1` [Example 345, 3-(5-Aminopyrazin-2-yl)-6-cyclohexyl-2-fluorophenol] yielded a Ki of 14.2 nM. In assay [2] (setting [4]), this compound displayed an IC50 of 15.1 nM.
Take `Nc1cnc(-c2ccc(CC3CCCCC3)c(O)c2F)cn1` [Example 346, 3-(5-Aminopyrazin-2-yl)-6-(cyclohexylmethyl)-2-fluorophenol]: affinity in assay [1] (setting [3]) was put at a Ki of 45.3 nM. Moreover, the IC50 in assay [2] (setting [4]) worked out at 176 nM.
With `Nc1cnc(-c2ccc(C3CCC3)c(Oc3ccnc(N)c3)c2F)cn1` [Example 347, 5-{3-[(2-Aminopyridin-4-yl)oxy]-4-cyclobutyl-2-fluorophenyl}pyrazin-2-amine], the affinity in assay [1] (setting [3]), expressed as Ki, was 47.6 nM. Moreover, in assay [2] (setting [4]), the IC50 amounted to 396 nM.
For `Nc1cnc(-c2ccc(C3CCC3)c(Oc3cncc(N)n3)c2F)cn1` [Example 348, 5-{3-[(6-Aminopyrazin-2-yl)oxy]-4-cyclobutyl-2-fluorophenyl}pyrazin-2-amine], in that order: 13.1 nM and 147 nM.
`Nc1cnc(-c2ccc(C3CCC3)c(Oc3cncnc3)c2F)cn1` [Example 349, 5-[4-Cyclobutyl-2-fluoro-3-(pyrimidin-5-yloxy)phenyl]pyrazin-2-amine] gave a Ki in assay [1] (setting [3]) of 31 nM. The same compound registered an IC50 in assay [2] (setting [4]) above 1000 nM.
`Nc1cnnc(Oc2c(C3CCC3)ccc(-c3cnc(N)cn3)c2F)c1` [Example 350, 6-[3-(5-Aminopyrazin-2-yl)-6-cyclobutyl-2-fluorophenoxy]pyridazin-4-amine]: the inhibitory constant (Ki) in assay [1] (setting [3]) turned out to be 52.9 nM. In assay [2] (setting [4]), 449 nM corresponded to half-maximal inhibition (IC50).
The compound `CC(C)(C)c1ccc(-c2cnc3[nH]ccc3c2)c(F)c1Oc1ncccn1` [Example 351, 5-[4-tert-Butyl-2-fluoro-3-(pyrimidin-2-yloxy)phenyl]-1H-pyrrolo[2.3-b]pyridine] displayed a Ki in assay [1] (setting [3]) of 54.4 nM. In assay [2] (setting [4]), this compound yielded an IC50 of 124 nM.
The compound `Nc1ncc(-c2ccc(C3CCC3)c(O)c2F)cn1` [Intermediate E, 3-(2-Aminopyrimidin-5-yl)-6-cyclobutyl-2-fluorophenol] came in with a Ki in assay [1] (setting [3]) of 99.5 nM. Further, the IC50 in assay [2] (setting [5]) and in assay [2] (setting [4]) was 1100 nM each time.
Regarding `CC(C)(C)c1ccc(-c2cnc(N)cn2)c(F)c1O` [Intermediate G, 3-(5-Aminopyrazin-2-yl)-6-tert-butyl-2-fluorophenol], the Ki in assay [1] (setting [6]) was 77.9 nM. The IC50 in assay [2] (setting [5]) and in assay [2] (setting [4]) was 575 nM throughout.
With `CC(C)(C)c1ccc(-c2cnc(N)nc2)c(F)c1O` [Intermediate H, 3-(2-Aminopyrimidin-5-yl)-6-tert-butyl-2-fluorophenol], in assay [1] (setting [6]), the Ki came to 72.3 nM. The IC50 in assay [2] (setting [5]) and in assay [2] (setting [4]) was 287 nM throughout.
